Assay results: US20260250337A1, “HYBRID ANTIMICROBIAL PEPTIDES” (UNIVERSIDADE FEDERAL DO ABC, priority 2023, published 2026)
No end group written: not given here.

What was measured:
Format in all cases: cell-based
bacterial strains = experiment: Antimicrobial activity over the panel of strains; settings: range over strains tested
Method: Initially, the antimicrobial activity was determined by liquid growth inhibition assays, as previously described by Pedron et al.^62. Briefly, Peptone Broth and Potato Dextrose Broth (Invitrogen) were used for antibacterial and antifungal assays, respectively. Two-fold serial dilutions of peptides (0.09-50 μmol L^−1) and microorganisms (Serratia marcescens ATCC 4112, Enterobacter cloacae β-12, Micrococcus luteus A270, Bacillus megaterium ATCC 10778, Bacillus subtilis ATCC 6633, Candida albicans MDM8, and Candida tropicalis IOC 4560) were incubated at 37° C. for 18 h (for bacteria) or 24 h (for fungi), and microbial growth was assessed by absorbance measurements at 595 nm. Experiments were performed in three biological repeats.
(§1) Method. The minimal inhibitory concentration (MIC) against the ESKAPE pathogens was determined using the broth microdilution method^81, 82 in Luria-Bertani (LB) medium. The MIC value was defined as the lowest concentration of peptide at which no microbial growth was observed. A. baumannii ATCC19606, E. coli ATCC11775, E. coli AIC221, E. coli AIC222, K. pneumoniae ATCC13883, S. aureus ATCC12600 P. aeruginosa PAO1, and P. aeruginosa PA14 were incubated on agar plates, and after 24 h, three isolated colonies were inoculated to 5 mL of Luria-Bertani (LB) broth and maintained at 37° C. overnight with shaking. Peptides were then added to 96-well polystyrene microtiter plates at concentrations ranging from 0 to 128 μmol L^−1, and 5×10^5 CFU mL^−1 of each bacterium was inoculated in each well. The plates were incubated at 37° C. for 24 h. Bacterial growth was measured using a microplate reader at 610 nm. Three independent replicates were performed.

P. aeruginosa = experiment: MIC against P. aeruginosa; settings: strain not given
Method: as §1

[1] = test system: MCF-7 human breast cancer cells; experiment: Anticancer activity, MTT assay; settings: for MCF-7 4 h LD50 / MCF-7 24 h LD50: MTT
Method: The anticancer activity assays were performed using MCF-10A human breast epithelial cells and MCF-7 mammary cancer cells as previously described by Pedron et al. 86. Briefly, the day before treatment, the cells were incubated at 37° C. and 5% CO2 for 24 h. The cells were treated with peptides ranging from 12.5 to 100 μmol L^−1 (MCF10-A cells) and 0.8 to 100 μmol L^−1 (MCF-7 cells) for 4 h and 24 h at 37° C., and cell viability was measured using 3-(4,5-Dimethylthiazol-2-yl)-2,5-diphenyltetrazolium bromide (MTT) assays 87. Three independent replicates were performed in each case.

| Substance | MIC range of the peptide over the strains (bacterial strains) [µM] | MIC against P. aeruginosa (P. aeruginosa) [µM] | MCF-7 4 h LD50 [1] [µmol/L] | MCF-7 24 h LD50 [1] [µmol/L] | concentration with activity against MCF-7 human breast cancer cells ([1]; incubation time not stated) [µmol/L] |
| --- | --- | --- | --- | --- | --- |
| ILGAILNVLKSLG-NH2 [PV, Ile-Leu-Gly-Ala-Ile-Leu-Asn-Val-Leu-Lys-Ser-Leu-Gly] | 3.1 to 64 | 128 | – | – | – |
| FLGALWNVAKSVF-NH2 [VmCT1, Phe-Leu-Gly-Ala-Len-Trp-Asu-Val-Ala-Lys-Ser-Val-Phe, reference compound] | – | – | 50 | 12.5 | 50 |
| FLPLIGRVLSGIL-NH2 [Temporin A, Phe-Leu-Pro-Leu-Ile-Gly-Arg-Val-Leu-Ser-Gly-Ile-Leu, reference compound] | – | – | 50 | 50 | – |
